Source: US20220226299A1 (NIPPON CHEMIPHAR CO., LTD., priority 2019, published 2022)
pIC50: −log10 of the molar value. Structures can show the parent of a compound that is named as a salt.

Molecular target: T1, human Cav3.2 channels (Homo sapiens, UniProt O95180)
T1 construct: human Cav3.2 channel ORF (Open Reading Frame) gene; expressed in transfected cells; host or cells: HEK293 cells (ATCC No. CRL-1573), pcDNA3.1(+) plasmid
Test: T-type calcium blocking action: intracellular calcium (Fluo-4 AM fluorescence) in HEK293 cells steadily expressing human Cav3.2 channels
Type: cell-based
Conditions: HEK293 cells expressing human Cav3.2; KCl-stimulated calcium influx, Fluo-4 fluorescence; Tables 1 to 3
Text: T-Type Calcium Blocking Action
(1) Construction of Cells Steadily Expressing Human Cav3.2 Channels
A sequence obtained by adding HindIII site and a kozak sequence (GCCACC) to the 5′-side of human Cav3.2 channel ORF (Open Reading Frame) gene and adding a KpnI site to the 3′-side of the gene, was incorporated into pcDNA3.1(+) (Thermo Fisher Scientific, #V790-20), and the plasmid was introduced into HEK293 cells (ATCC No. CRL-1573) according to the protocol of FuGENE (registered trademark) HD Transfection Reagent (Promega, #E2311).
(2) Method for Measuring Intracellular Calcium Concentration
The cells steadily expressing human Cav3.2 channels produced by testing method (1) were seeded on a 96-well plate (Dulbecco's modified Eagle medium (DMEM) medium containing 10% fetal bovine serum (FBS) was used as a medium). The cells were seeded and cultured for 48 hours under conditions of 37° C. and 5% CO2. Thereafter, the cells were washed with buffer A in order to remove the medium. Each well was treated with 80 μL of a fluorescent dye solution produced by mixing 22 μg of a fluorescent calcium indicator, Fluo-4 AM (Dojindo Laboratories, #F311), 20 μL of DMSO, 1 μL of 10% Pluronic F-127 (Thermo Fisher Scientific, #P6866), and 4 mL of buffer A. The cells were allowed to stand for 45 minutes at room temperature under light-shielded conditions, and then washed with buffer B in order to completely replace the solution. 70 μL of DMSO having the same concentration as that of a test compound as a negative control and 70 μL of a mixture containing 1 μM of a known blocker RQ-00311651 and the test compound as a positive control were each added to each well in a form of being contained in the buffer B. The test compound was dissolved in 100% DMSO and added at a final concentration of 0.1%. Then, the cells were further allowed to stand at room temperature under light-shielded conditions for 15 minutes and placed in a microplate reader EnVision (PerkinElmer). Background fluorescence was measured in each well, and then a 5 μg/mL grammicidin solution was added to buffer B at 10 μL/well. After 90 seconds, baseline fluorescence was measured. Thereafter, 83.8 mM KCl was added to buffer B at 20 μL/well, and an increase in fluorescence caused by calcium influx generated by the stimulus was measured for 10 seconds. A blocking percentage was calculated from a maximum fluorescence increase value from a baseline, a logarithmic value of a compound concentration and blockery activity were plotted, and thereby an IC50 value was calculated. In the measurement, fluorescence at 510 nm that was emitted when the cells were irradiated with excitation light at 485 nm was observed.
Buffer A: 140 mM NaCl, 5 mM KCl, 1 mM MgCl2, 0.5 mM CaCl2, 10 mM Glucose, 10 mM HEPES, pH 7.3
Buffer B: 137.9 mM Choline-Cl, 4.1 mM KCl, 1 mM MgCl2, 0.5 mM CaCl2, 10 mM Glucose, 10 mM HEPES, pH 7.3

T1 sequence (O95180 whole entry): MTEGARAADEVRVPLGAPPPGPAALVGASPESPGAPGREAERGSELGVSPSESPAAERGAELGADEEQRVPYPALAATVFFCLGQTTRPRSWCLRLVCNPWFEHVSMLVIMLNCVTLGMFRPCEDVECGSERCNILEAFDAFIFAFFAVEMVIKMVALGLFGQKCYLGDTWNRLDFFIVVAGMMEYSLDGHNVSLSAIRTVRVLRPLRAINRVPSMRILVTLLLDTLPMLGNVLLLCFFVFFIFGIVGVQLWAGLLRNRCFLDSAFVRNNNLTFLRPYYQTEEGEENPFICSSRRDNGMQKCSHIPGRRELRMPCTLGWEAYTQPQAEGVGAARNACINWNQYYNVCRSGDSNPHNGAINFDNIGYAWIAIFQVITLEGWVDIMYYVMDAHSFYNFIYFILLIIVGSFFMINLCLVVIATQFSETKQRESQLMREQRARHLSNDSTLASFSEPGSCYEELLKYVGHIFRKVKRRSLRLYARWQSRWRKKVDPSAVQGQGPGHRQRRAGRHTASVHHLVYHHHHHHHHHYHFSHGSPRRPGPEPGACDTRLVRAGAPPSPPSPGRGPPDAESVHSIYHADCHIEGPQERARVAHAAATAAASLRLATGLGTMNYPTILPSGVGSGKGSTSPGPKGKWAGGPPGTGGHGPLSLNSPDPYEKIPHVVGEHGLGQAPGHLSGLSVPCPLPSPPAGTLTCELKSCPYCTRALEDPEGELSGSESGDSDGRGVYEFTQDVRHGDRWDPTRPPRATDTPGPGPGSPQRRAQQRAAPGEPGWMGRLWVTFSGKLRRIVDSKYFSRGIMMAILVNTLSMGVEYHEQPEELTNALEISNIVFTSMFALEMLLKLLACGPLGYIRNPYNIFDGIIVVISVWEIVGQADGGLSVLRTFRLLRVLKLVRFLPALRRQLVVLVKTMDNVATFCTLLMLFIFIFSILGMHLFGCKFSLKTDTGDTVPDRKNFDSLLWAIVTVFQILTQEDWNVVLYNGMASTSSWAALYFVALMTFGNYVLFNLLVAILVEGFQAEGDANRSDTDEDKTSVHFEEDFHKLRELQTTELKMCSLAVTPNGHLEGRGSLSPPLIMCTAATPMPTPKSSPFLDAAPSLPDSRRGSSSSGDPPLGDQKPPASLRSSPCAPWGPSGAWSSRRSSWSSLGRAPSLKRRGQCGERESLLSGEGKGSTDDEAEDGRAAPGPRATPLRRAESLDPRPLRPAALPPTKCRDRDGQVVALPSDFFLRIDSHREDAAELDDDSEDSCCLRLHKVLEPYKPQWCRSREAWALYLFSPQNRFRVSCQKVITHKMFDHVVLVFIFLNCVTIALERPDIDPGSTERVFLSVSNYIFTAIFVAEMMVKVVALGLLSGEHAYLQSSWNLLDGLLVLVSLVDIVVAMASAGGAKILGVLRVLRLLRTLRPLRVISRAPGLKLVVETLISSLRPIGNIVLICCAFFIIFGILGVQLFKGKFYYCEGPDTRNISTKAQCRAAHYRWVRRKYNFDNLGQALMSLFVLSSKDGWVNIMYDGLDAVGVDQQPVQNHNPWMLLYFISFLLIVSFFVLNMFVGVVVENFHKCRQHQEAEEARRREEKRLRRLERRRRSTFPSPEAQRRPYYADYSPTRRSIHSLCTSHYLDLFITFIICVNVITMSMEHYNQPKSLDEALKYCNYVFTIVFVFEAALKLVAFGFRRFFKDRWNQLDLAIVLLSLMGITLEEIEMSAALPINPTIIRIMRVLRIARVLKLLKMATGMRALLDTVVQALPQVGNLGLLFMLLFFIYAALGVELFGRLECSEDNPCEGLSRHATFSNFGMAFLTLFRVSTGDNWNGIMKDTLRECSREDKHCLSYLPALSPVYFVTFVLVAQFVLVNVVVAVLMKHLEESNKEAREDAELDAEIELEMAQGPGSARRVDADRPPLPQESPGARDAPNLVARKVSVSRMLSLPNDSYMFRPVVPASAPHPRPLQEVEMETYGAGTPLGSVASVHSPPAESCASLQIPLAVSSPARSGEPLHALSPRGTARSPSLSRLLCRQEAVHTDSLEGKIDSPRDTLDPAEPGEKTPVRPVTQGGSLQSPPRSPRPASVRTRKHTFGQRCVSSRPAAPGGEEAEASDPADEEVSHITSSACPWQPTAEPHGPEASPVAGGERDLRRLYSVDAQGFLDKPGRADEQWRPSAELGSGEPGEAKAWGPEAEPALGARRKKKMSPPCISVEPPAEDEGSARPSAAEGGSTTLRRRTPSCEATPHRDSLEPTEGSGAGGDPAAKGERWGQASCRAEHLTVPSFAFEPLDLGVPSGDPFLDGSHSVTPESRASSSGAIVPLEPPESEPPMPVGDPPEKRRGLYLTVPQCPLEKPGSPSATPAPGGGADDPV

CC(C)c1ccc(CC(=O)NC2CCN(c3cncc(C(F)(F)F)c3)CC2)cc1 [Example 109, 2-(4-Isopropylphenyl)-N-(1-(5-(trifluoromethyl)pyridin-3-yl)piperidin-4-yl)acetamide] showed a pIC50 of 6.62.

Compound CC(C)c1ccc(CC(=O)NC2CN(c3ccc(C(F)(F)F)nc3)C2)cc1 [Example 118, 2-(4-Isopropylphenyl)-N-(1-(6-(trifluoromethyl)pyridin-3-yl)azetidin-3-yl)acetamide] has a pIC50 of 5.68.

CN(C)C(C(=O)N[C@@H]1CCN(c2cncc(C(F)(F)F)c2)C1)c1ccc(C2CC2)cc1 (stereo partly drawn) [Example 138, 2-(4-cyclopropylphenyl)-2-(dimethylamino)-N—((R)-1-(5-(trifluoromethyl)pyridin-3-yl)pyrrolidin-3-yl)acetamide hydrochloride] showed a pIC50 of 6.16.

Work on O=C(Cc1ccc(C2CC2)cc1)N[C@H]1CN(c2cncc(C(F)(F)F)c2)CC12CC2 [Example 6, (R)-2-(4-cyclopropylphenyl)-N-(5-(5-(trifluoromethyl)pyridin-3-yl)-5-azaspiro[2.4]heptan-7-yl) acetamide] yielded a pIC50 of 6.89.

Cn1ncc2cc(CC(=O)N[C@@H]3CCN(c4cncc(C(F)(F)F)c4)C3)ccc21 [Example 142, (R)-2-(1-methyl-1H-indazol-5-yl)-N-(1-(5-(trifluoromethyl)pyridin-3-yl)pyrrolidin-3-yl)acetamide] was tested, and the pIC50 was 8.03.

In the case of O=C(Cc1ccc(N2C3CCC2COC3)cc1)N[C@@H]1CCN(c2ccc(C(F)(F)F)nc2)C1 [Example 150, 2-(4-(3-Oxa-8-azabicyclo[3.2.1]octan-8-yl)phenyl)-N—((R)-1-(6-(trifluoromethyl)pyridin-3-yl)pyrrolidin-3-yl)acetamide], the pIC50 was 6.40.

Cc1nc2cc(CC(=O)N[C@@H]3CCN(c4cncc(C(F)(F)F)c4)C3)ccc2o1 [Example 153, (R)-2-(2-methylbenzo[d]oxazol-5-yl)-N-(1-(5-(trifluoromethyl)pyridin-3-yl)pyrrolidin-3-yl)acetamide] gave a pIC50 of 6.24.

Cn1ccc2ccc(CC(=O)N[C@@H]3CCN(c4cncc(C(F)(F)F)c4)C3)cc21 [Example 91, (R)-2-(1-methyl-1H-indol-6-yl)-N-(1-(5-(trifluoromethyl)pyridin-3-yl)pyrrolidin-3-yl)acetamide] gave a pIC50 of 7.49.

Work on CC(C)Cc1ccc([C@H](C)C(=O)N[C@@H]2CCN(c3cncc(C(F)(F)F)c3)C2)cc1 [Example 31, (S)-2-(4-isobutylphenyl)-N—((R)-1-(5-(trifluoromethyl)pyridin-3-yl)pyrrolidin-3-yl)propanamide] yielded a pIC50 of 6.68.

Compound O=C(Cc1ccc2cn[nH]c2c1)N[C@@H]1CCN(c2cncc(C(F)(F)F)c2)C1 [Example 15, (R)-2-(1H-indazol-6-yl)-N-(1-(5-(trifluoromethyl)pyridin-3-yl)pyrrolidin-3-yl)acetamide] has a pIC50 of 6.43.

For Cc1ncoc1-c1ccc(CC(=O)N[C@@H]2CCN(c3cncc(C(F)(F)F)c3)C2)cc1 [Example 133, (R)-2-(4-(4-methyloxazol-5-yl)phenyl)-N-(1-(5-(trifluoromethyl)pyridin-3-yl)pyrrolidin-3-yl)acetamide], the pIC50 was 7.26.

For O=C(N[C@@H]1CCN(c2cnc(C(F)(F)F)nc2)C1)[C@H]1C[C@@H]1c1nc2ccccc2[nH]1 [Example 70, (1S,2S)-2-(1H-benzo[d]imidazol-2-yl)-N—((R)-1-(2-(trifluoromethyl)pyrimidin-5-yl)pyrrolidin-3-yl)cyclopropane-1-carboxyamide], the pIC50 was 6.68.

O=C(Cc1ccc(C2CC2)cc1)N[C@@H]1CCN(c2nc(C(F)(F)F)co2)C1 [Example 80, (R)-2-(4-cyclopropylphenyl)-N-(1-(4-(trifluoromethyl)oxazol-2-yl)pyrrolidin-3-yl)acetamide] showed a pIC50 of 6.14.

O=C(N[C@@H]1CCN(c2cncc(Br)c2)C1)[C@H]1C[C@@H]1c1nc2ccccc2[nH]1 [Example 76, (1S,2S)-2-(1H-benzo[d]imidazol-2-yl)-N—((R)-1-(5-bromopyridin-3-yl)pyrrolidin-3-yl)cyclopropane-1-carboxyamide] gave a pIC50 of 7.17.

O=C(Cc1ccc(C(F)(F)F)cc1)N[C@@H]1CCN(c2ccc(C(F)(F)F)nc2)C1 [Example 183, (R)-2-(4-(trifluoromethyl)phenyl)-N-(1-(6-(trifluoromethyl)pyridin-3-yl)pyrrolidin-3-yl)acetamide] showed a pIC50 of 6.70.

O=C1CCN(c2ccc(CC(=O)N[C@@H]3CCN(c4cncc(C(F)(F)F)c4)C3)cc2)CC1 [Example 102, (R)-2-(4-(4-oxopiperidin-1-yl)phenyl)-N-(1-(5-(trifluoromethyl)pyridin-3-yl)pyrrolidin-3-yl)acetamide] showed a pIC50 of 6.82.

Work on O=C(Cc1ccc(N2CCC3(CC2)OCCO3)cc1)N[C@@H]1CCN(c2cncc(C(F)(F)F)c2)C1 [Example 101, (R)-2-(4-(1,4-dioxa-8-azaspiro[4.5]decan-8-yl)phenyl)-N-(1-(5-(trifluoromethyl)pyridin-3-yl)pyrrolidin-3-yl)acetamide] yielded a pIC50 of 7.00.

In the case of Nc1ccc(CC(=O)N[C@@H]2CCN(c3cncc(C(F)(F)F)c3)C2)cc1 [Example 33, (R)-2-(4-aminophenyl)-N-(1-(5-(trifluoromethyl)pyridin-3-yl)pyrrolidin-3-yl)acetamide], the pIC50 was 6.00.

O=C(Cc1ccc(C2CC2)cc1)N[C@@H]1CCN(c2cc(OCC(F)(F)F)ccn2)C1 [Example 127, (R)-2-(4-cyclopropylphenyl)-N-(1-(4-(2,2,2-trifluoroethoxy)pyridin-2-yl)pyrrolidin-3-yl)acetamide] was tested, and the pIC50 was 5.96.

With O=C(Cc1ccc2ncccc2c1)N[C@@H]1CCN(c2cncc(C(F)(F)F)c2)C1 [Example 77, (R)-2-(quinolin-6-yl)-N-(1-(5-(trifluoromethyl)pyridin-3-yl)pyrrolidin-3-yl)acetamide] the pIC50 was 6.70.

With Cc1nccnc1-c1ccc(CC(=O)N[C@@H]2CCN(c3cncc(C(F)(F)F)c3)C2)cc1 [Example 132, (R)-2-(4-(3-methylpyrazin-2-yl)phenyl)-N-(1-(5-(trifluoromethyl)pyridin-3-yl)pyrrolidin-3-yl)acetamide] the pIC50 was 6.72.

Compound O=C(Cc1ccc(C2CC2)cc1)N[C@H]1CN(c2cncc(C(F)(F)F)c2)C[C@@H]1F [Example 28, 2-(4-cyclopropylphenyl)-N-((3S,4S)-4-fluoro-1-(5-(trifluoromethyl)pyridin-3-yl)pyrrolidin-3-yl)acetamide] has a pIC50 of 6.70.

O=C(Cc1ccc(C2CC2)cc1)N[C@@H]1CCN(c2nc3ccc(F)cc3s2)C1 [Example 172, (R)-2-(4-cyclopropylphenyl)-N-(1-(6-fluorobenzo[d]thiazol-2-yl)pyrrolidin-3-yl)acetamide] gave a pIC50 of 6.26.

For O=C(N[C@H]1CCN(c2ccc(C(F)(F)F)cc2)C1)C1CC1c1nc2ccccc2[nH]1 (single isomer, unassigned) [Example 53], the pIC50 was 6.00.

For O=C(N[C@@H]1CCN(c2ccc3cc(F)ccc3n2)C1)[C@H]1C[C@@H]1c1nc2ccccc2[nH]1 [Example 74, (1S,2S)-2-(1H-benzo[d]imidazol-2-yl)-N—((R)-1-(6-fluoroquinolin-2-yl)pyrrolidin-3-yl)cyclopropane-1-carboxyamide], the pIC50 was 6.89.

With CC(C)c1ccc(CC(=O)N[C@@H]2CCN(c3ncc(C(F)(F)F)cn3)C2)cc1 [Example 111, (R)-2-(4-isopropylphenyl)-N-(1-(5-(trifluoromethyl)pyrimidin-2-yl)pyrrolidin-3-yl)acetamide] the pIC50 was 5.00.
